These compounds were tested against PIK3CG (human) (UniProt P48736) (assay: Inhibition of PIK3CG Kinase Activity).
PIK3CG (human), sequence (P48736 whole entry, looked up): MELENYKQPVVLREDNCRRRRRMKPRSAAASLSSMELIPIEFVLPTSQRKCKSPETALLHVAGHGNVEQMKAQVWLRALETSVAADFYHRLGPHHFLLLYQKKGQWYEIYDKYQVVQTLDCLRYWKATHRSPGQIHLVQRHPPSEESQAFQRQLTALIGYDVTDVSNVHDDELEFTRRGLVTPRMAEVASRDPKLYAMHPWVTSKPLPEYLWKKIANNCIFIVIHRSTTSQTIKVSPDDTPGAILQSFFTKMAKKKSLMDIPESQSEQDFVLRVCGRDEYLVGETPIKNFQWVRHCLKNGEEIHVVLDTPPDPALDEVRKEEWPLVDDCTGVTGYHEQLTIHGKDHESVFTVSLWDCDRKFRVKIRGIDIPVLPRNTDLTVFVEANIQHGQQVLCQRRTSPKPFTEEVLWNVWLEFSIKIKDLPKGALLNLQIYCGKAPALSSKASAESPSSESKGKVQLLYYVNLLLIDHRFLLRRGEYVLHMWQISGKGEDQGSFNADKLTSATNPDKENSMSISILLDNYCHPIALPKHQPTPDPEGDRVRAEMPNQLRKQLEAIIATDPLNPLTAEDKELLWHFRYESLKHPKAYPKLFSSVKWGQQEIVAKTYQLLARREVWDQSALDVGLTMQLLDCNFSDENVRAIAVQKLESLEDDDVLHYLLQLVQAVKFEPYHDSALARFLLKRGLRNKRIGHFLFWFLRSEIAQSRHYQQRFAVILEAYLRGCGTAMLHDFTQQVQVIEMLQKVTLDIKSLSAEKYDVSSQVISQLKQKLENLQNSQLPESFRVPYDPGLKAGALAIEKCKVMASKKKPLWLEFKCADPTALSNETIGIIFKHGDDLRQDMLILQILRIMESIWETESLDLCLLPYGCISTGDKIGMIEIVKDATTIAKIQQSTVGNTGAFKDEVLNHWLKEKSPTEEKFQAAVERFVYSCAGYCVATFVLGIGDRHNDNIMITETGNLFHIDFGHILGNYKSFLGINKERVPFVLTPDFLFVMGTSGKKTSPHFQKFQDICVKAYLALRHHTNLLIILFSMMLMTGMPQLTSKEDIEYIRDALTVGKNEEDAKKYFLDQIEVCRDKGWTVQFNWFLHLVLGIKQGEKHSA

IC50, < 0.6 µM:
CC(=O)Nc1nc2c(s1)-c1c(c(C3CC3)nn1-c1ccc(C(=O)N[C@H]3CC[C@@H](N4CCCCC4)CC3)c(Cl)c1)CC2
CC(=O)Nc1nc2c(s1)-c1c(c(C3CC3)nn1-c1ccc(C(N)=O)cc1Cl)CC2
CC(=O)Nc1nc2c(s1)-c1c(c(C3CC3)nn1-c1ccc(C(=O)N3CCC(N(C)C4CCCC4)CC3)cc1Cl)CC2
CC(=O)Nc1nc2c(s1)-c1c(c(C3CCC3)nn1-c1ccc(C(=O)NC3CCN(C)CC3)cc1Cl)CC2
CC(=O)Nc1nc2c(s1)-c1c(c(C3CC3)nn1-c1ccccc1C(F)(F)F)CC2
CCCN1CCC(C(=O)Nc2ccc(-n3nc(C4CC4)c4c3-c3sc(NC(C)=O)nc3CC4)c(Cl)c2)CC1
CC(=O)Nc1nc2c(s1)-c1c(c(C3CC3)nn1-c1ccc(C(=O)N[C@H]3CC[C@@H](N4CCCC4)CC3)c(F)c1)CC2
CC(=O)Nc1nc2c(s1)-c1c(c(C3CC3)nn1-c1ccc(C(=O)N(C)[C@@H]3CCN(C4CCCC4)C3)cc1Cl)CC2
CCCN1CC[C@@H](NC(=O)c2ccc(-n3nc(C4CC4)c4c3-c3sc(NC(C)=O)nc3CC4)c(F)c2)C1
CC(=O)Nc1nc2c(s1)-c1c(c(C3CC3)nn1-c1ccc(N)cc1Cl)CC2
CC(=O)Nc1nc2c(s1)-c1c(c(C3CC3)nn1-c1ccc(C(=O)N3CCC(CN4CCCC4)CC3)c(Cl)c1)CC2
CC(=O)Nc1nc2c(s1)-c1c(c(C3CC3)nn1-c1ccc(C(=O)N(C)[C@H]3CC[C@@H](N(C)CC4CC4)CC3)cc1C)CC2
CC(=O)Nc1nc2c(s1)-c1c(c(C3CC3)nn1-c1ccc(C(=O)N3CCC(N(C)C4CCCC4)CC3)c(Cl)c1)CC2
CC(=O)Nc1nc2c(s1)-c1c(c(C3CC3)nn1-c1ccc(C(=O)N[C@H]3CC[C@@H](N4CCCCC4)CC3)cc1C)CC2
CC(=O)Nc1nc2c(s1)-c1c(c(C3CC3)nn1-c1ccc(C(=O)N(C)[C@H]3CC[C@@H](N4CCCCC4)CC3)cc1F)CC2
CC(=O)Nc1nc2c(s1)-c1c(c(C3CCC3)nn1-c1ccc(C(=O)NC3CCN(CC4CCCC4)CC3)cc1Cl)CC2
CC(=O)Nc1nc2c(s1)-c1c(c(C3CC3)nn1-c1ccc(CC(=O)N[C@@H]3CCN(C4CCCC4)C3)cc1Cl)CC2
CC(=O)Nc1nc2c(s1)-c1c(c(C3CC3)nn1-c1ccc(C(=O)N3CCN(C4CCCC4)CC3)c(Cl)c1)CC2
CC(=O)Nc1nc2c(s1)-c1c(c(C3CC3)nn1-c1ccc(C(=O)NC3CCN(CC4CCCC4)CC3)c(F)c1)CC2
CC(=O)Nc1nc2c(s1)-c1c(c(C3CC3)nn1-c1ccc(C(=O)N(C)[C@H]3CC[C@@H](N(C)CC4CCCC4)CC3)cc1Cl)CC2
CC(=O)Nc1nc2c(s1)-c1c(c(C3CC3)nn1-c1ccc(C(=O)NC[C@H]3CCCN3C3CCCC3)c(Cl)c1)CC2
CC(=O)Nc1nc2c(s1)-c1c(c(C3(C)CC3)nn1-c1ccc(C(=O)NC3CCN(C)CC3)cc1Cl)CC2
CC(=O)Nc1nc2c(s1)-c1c(c(C3CC3)nn1-c1ccc(C(=O)N[C@@H]3CCN(C4CCCCC4)C3)cc1C)CC2

Reference: the Kinase Knowledgebase extract (Sharma et al. 2016)
